Laboratory results from the supplement of paper PMC11208160.

Experiment: recombinant barcode read abundance after kanamycin selection (control-corrected) (log10(CPM+1)); higher = more efficient recombination; sequences stand for … in AGTGCAGAGAAAATCGGCCAGTTTTCTCTGCCTGCAGTCCGCATGCCGT…AGATTTATGCAGCGGACTGCCTTTCTCCCAAAGTGATAAACCGGACAGTATCATGGACCGGTTTTCCCGGTAATCCGTATTTGCAAGGTTGGTTTCACT; site = the 11-nt target
Procedure, shortened: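 A vector carrying a T7-inducible recombinase and the last 73 bp of the bridge RNA received, by Gibson cloning, oligos encoding a promoter, target, barcode and the first 104 bridge RNA bases under J23119. The pooled constructs entered E. coli together with a donor plasmid by electroporation. Selection used chloramphenicol/ampicillin/kanamycin with 0.1 mM IPTG, with chloramphenicol/ampicillin LB agar as the control, each in two replicates. Recombination efficiency is the averaged, control-corrected counts-per-million of barcodes at recombinant junctions, reported as log10(CPM+1).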
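Note: IS621 recombinase and bridge RNA in Escherichia coli cells.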

| Sequence | recombinant barcode read abundance (log10) |
| --- | --- |
| TCGTGCCCTTGGGTTCTAACCTGTTGCCT (site TCGTGCTCTAG) | 0.0522 |
| TCGTTCGCTTGGGTTCTAACCTGTTGCCG (site GTCAGATCTAA) | 0.37 |
| TCGTTCGCTTGGGTTCTAACCTGTTGCCG (site TCGTTCGCTCG) | 0.0881 |
| TCTAAACCTTGGGTTCTAACCTGTTGCAT (site TCTAAACCTAT) | 0.197 |
| TCTAAACCTTGGGTTCTAACCTGTTGCAT (site TCTAACCCTAT) | 0.142 |
| TCTAAACCTTGGGTTCTAACCTGTTGCAT (site TCTAAGCCTAT) | 0.0795 |
| TCTAAACCTTGGGTTCTAACCTGTTGCAT (site TCTAATCCTAT) | 0.229 |
| TCTAAGACTTGGGTTCTAACCTGTTGCGC (site CTACCCTCTAG) | 0.0242 |
| TCTAAGACTTGGGTTCTAACCTGTTGCGC (site TCTAAGACTGC) | 1.26 |
| TCTAAGCCTTGGGTTCTAACCTGTTGCAT (site TCTAAACCTAT) | 0.152 |
| TCTAAGCCTTGGGTTCTAACCTGTTGCAT (site TCTAACCCTAT) | 0.259 |
| TCTAAGCCTTGGGTTCTAACCTGTTGCAT (site TCTAAGCCTAT) | 0.531 |
| TCTAAGCCTTGGGTTCTAACCTGTTGCAT (site TCTAATCCTAT) | 0.0292 |
| TCTACCTCTTGGGTTCTAACCTGTTGCCT (site TCTACATCTAG) | 0.0227 |
| TCTACCTCTTGGGTTCTAACCTGTTGCCT (site TCTACCTCTAG) | 1.19 |
| TCTACCTCTTGGGTTCTAACCTGTTGCCT (site TCTACGTCTAG) | 0.102 |
| TCTACCTCTTGGGTTCTAACCTGTTGCCT (site TCTACTTCTAG) | 0.0484 |
| TCTACGTCTTGGGTTCTAACCTGTTGCCT (site TCTACATCTAG) | 0.0403 |
| TCTACGTCTTGGGTTCTAACCTGTTGCCT (site TCTACCTCTAG) | 0.00686 |
| TCTACGTCTTGGGTTCTAACCTGTTGCCT (site TCTACGTCTAG) | 0.168 |
| TCTACGTCTTGGGTTCTAACCTGTTGCCT (site TCTACTTCTAG) | 0.126 |
| TCTCACCCTTGGGTTCTAACCTGTTGCCT (site TCTCACCCTAG) | 0.516 |
| TCTCACCCTTGGGTTCTAACCTGTTGCCT (site TCTGATCCTAG) | 0.0773 |
| TCTCATTCTTGGGTTCTAACCTGTTGCGT (site TCTAATTCTAC) | 0.0146 |
| TCTCATTCTTGGGTTCTAACCTGTTGCGT (site TCTCATTCTAC) | 0.937 |
| TCTCATTCTTGGGTTCTAACCTGTTGCGT (site TCTGATTCTAC) | 0.163 |

| Sequence | recombinant barcode read abundance (log10) |
| --- | --- |
| TCTCATTCTTGGGTTCTAACCTGTTGCGT (site TCTTATTCTAC) | 0.0829 |
| TCTCCGCCTTGGGTTCTAACCTGTTGCCT (site TCTCAGCCTAG) | 0.139 |
| TCTCCGCCTTGGGTTCTAACCTGTTGCCT (site TCTCCGCCTAG) | 0.431 |
| TCTCCGCCTTGGGTTCTAACCTGTTGCCT (site TCTCGGCCTAG) | 0.0901 |
| TCTCCGCCTTGGGTTCTAACCTGTTGCCT (site TCTCTGCCTAG) | 0.0964 |
| TCTCGATCTTGGGTTCTAACCTGTTGCAT (site CCTCGATCTAT) | 0.0525 |
| TCTCGATCTTGGGTTCTAACCTGTTGCAT (site TCTCGATCTAT) | 0.273 |
| TCTCGTCCTTGGGTTCTAACCTGTTGCTA (site AGCAACACTCT) | 0.226 |
| TCTCGTCCTTGGGTTCTAACCTGTTGCTA (site TCTCGTCCTTA) | 0.0623 |
| TCTCTGCCTTGGGTTCTAACCTGTTGCCT (site TCTCAGCCTAG) | 0.277 |
| TCTCTGCCTTGGGTTCTAACCTGTTGCCT (site TCTCCGCCTAG) | 1.15 |
| TCTCTGCCTTGGGTTCTAACCTGTTGCCT (site TCTCGGCCTAG) | 0.108 |
| TCTCTGCCTTGGGTTCTAACCTGTTGCCT (site TCTCTGCCTAG) | 0.208 |
| TCTGAAACTTGGGTTCTAACCTGTTGCTT (site GACACCTCTCG) | 0.0724 |
| TCTGAAACTTGGGTTCTAACCTGTTGCTT (site TCTGAAACTAA) | 0.314 |
| TCTGAGGCTTGGGTTCTAACCTGTTGCTG (site TCAGAGGCTCA) | 0.263 |
| TCTGAGGCTTGGGTTCTAACCTGTTGCTG (site TCCGAGGCTCA) | 0.129 |
| TCTGAGGCTTGGGTTCTAACCTGTTGCTG (site TCGGAGGCTCA) | 0.0364 |
| TCTGAGGCTTGGGTTCTAACCTGTTGCTG (site TCTGAGGCTCA) | 0.455 |
| TCTGCGACTTGGGTTCTAACCTGTTGCCT (site TCAGCGACTAG) | 0.0737 |
| TCTGCGACTTGGGTTCTAACCTGTTGCCT (site TCCGCGACTAG) | 0.455 |
| TCTGCGACTTGGGTTCTAACCTGTTGCCT (site TCGGCGACTAG) | 0.114 |
| TCTGCGACTTGGGTTCTAACCTGTTGCCT (site TCTGCGACTAG) | 0.265 |
| TCTGGGGCTTGGGTTCTAACCTGTTGCCT (site ACTGGGGCTTG) | 0.0588 |
| TCTGGGGCTTGGGTTCTAACCTGTTGCCT (site TCTGGGGCTAG) | 0.0357 |
| TCTGGGGCTTGGGTTCTAACCTGTTGCGG (site TCTGGGGCTCA) | 0.376 |

| Sequence | recombinant barcode read abundance (log10) |
| --- | --- |
| TCTGGGGCTTGGGTTCTAACCTGTTGCGG (site TCTGGGGCTCC) | 2.61 |
| TCTGGGGCTTGGGTTCTAACCTGTTGCGG (site TCTGGGGCTCG) | 0.271 |
| TCTGGGGCTTGGGTTCTAACCTGTTGCGG (site TCTGGGGCTCT) | 2.22 |
| TCTGTAACTTGGGTTCTAACCTGTTGCCT (site CAATCCTCTTA) | 0.183 |
| TCTGTAACTTGGGTTCTAACCTGTTGCCT (site TCTGTAACTAG) | 0.421 |
| TCTGTGTCTTGGGTTCTAACCTGTTGCTA (site ATATCAACTCG) | 0.0225 |
| TCTGTGTCTTGGGTTCTAACCTGTTGCTA (site TCTGTGTCTTA) | 1.46 |
| TCTTATACTTGGGTTCTAACCTGTTGCAT (site TCTTATACTAC) | 0.0107 |
| TCTTATACTTGGGTTCTAACCTGTTGCAT (site TCTTATACTAT) | 0.186 |
| TCTTGACCTTGGGTTCTAACCTGTTGCTT (site GGCACCACTCG) | 0.063 |
| TCTTGACCTTGGGTTCTAACCTGTTGCTT (site TCTTGACCTAA) | 0.242 |
| TCTTGCTCTTGGGTTCTAACCTGTTGCCT (site AGAACTCCTCA) | 0.102 |
| TCTTGCTCTTGGGTTCTAACCTGTTGCCT (site TCTTGCTCTAG) | 0.574 |
| TCTTGGACTTGGGTTCTAACCTGTTGCTT (site TCTTGGACTAA) | 0.421 |
| TCTTGGACTTGGGTTCTAACCTGTTGCTT (site TCTTGGACTCA) | 0.145 |
| TCTTGGACTTGGGTTCTAACCTGTTGCTT (site TCTTGGACTGA) | 0.0999 |
| TCTTGGACTTGGGTTCTAACCTGTTGCTT (site TCTTGGACTTA) | 0.138 |
| TCTTGGTCTTGGGTTCTAACCTGTTGCTA (site TCTTGGTCTTA) | 0.0413 |
| TCTTGGTCTTGGGTTCTAACCTGTTGCTA (site TTATGGTCTTA) | 0.208 |
| TCTTGTCCTTGGGTTCTAACCTGTTGCGA (site TCTTGTCCTAC) | 0.0306 |
| TCTTGTCCTTGGGTTCTAACCTGTTGCGA (site TCTTGTCCTCC) | 0.268 |
| TCTTGTCCTTGGGTTCTAACCTGTTGCGA (site TCTTGTCCTGC) | 0.343 |
| TCTTGTCCTTGGGTTCTAACCTGTTGCGA (site TCTTGTCCTTC) | 0.253 |
| TCTTGTCCTTGGGTTCTAACCTGTTGCGC (site TCTTGTCCTAC) | 0.0303 |
| TCTTGTCCTTGGGTTCTAACCTGTTGCGC (site TCTTGTCCTCC) | 0.093 |
